Here are results for one compound from patent publication US20260324636A1, “COMPOSITION FOR PROVIDING PLANT WITH STRESS RESISTANCE” (KIRIN HOLDINGS KABUSHIKI KAISHA, priority 2022, published 2026).

In one test the test system is ZAT12. The test can be described thus: ZAT12 gene expression by real-time PCR, Example 11. Type of test: in vivo. As to conditions: Arabidopsis thaliana; 0.4 mM, 22° C. for 2 hours; read-out: ZAT12 expression level, increase vs control. As for the experimental part:
The materials as used in Example 1 were used.
The medium as used in Example 1 was used.
To the Arabidopsis thaliana plants grown for 7 days in the same manner as in Example 1, 0.4 mM N-acetylglutamic acid or an equivalent amount of sterile water was added, and the plants were incubated at 22° C. for 2 hours. After incubation for 2 hours, the samples were frozen with liquid nitrogen, and RNA was extracted using the RNeasy Plant Mini Kit […].
cDNA that would be necessary as a real-time PCR template was synthesized from the RNA obtained. 1000 ng total RNA was used for each sample, and cDNA was synthesized using the Verso cDNA Synthesis Kit (Thermo Fischer Scientific). The synthesized cDNA was diluted to 5-fold with sterile distilled water and subjected to real-time PCR. For real-time PCR, a reaction solution containing ZAT10 (AGI code: AT1G27730) and ZAT12 (AGI code: AT5G59820) as the target genes, PP2AA3 (AGI code: AT1G13320) as the reference gene, and TB Green Ex Taq II (TakaRa) was prepared. PCR was performed with the use of the LightCycler® 480 System (Roche) with the number of amplification cycles of 50. The primers shown below were used.
Thereafter, the relative expression levels of the target genes upon N-acetylglutamic acid treatment were calculated by the ΔΔCt method using the Cp values obtained by real-time PCR.

In another test the test system is H1HSP17.6C. Description: H1HSP17.6C gene expression by real-time PCR, Example 7. It counts as in vivo, hop. The settings on record: 1 mM in medium, 20° C. for 2 hours, leaves; read-out: H1HSP17.6C expression level, increase vs control. The source says:
In order to design primers for the target genes necessary for gene expression analysis by real-time PCR, homologs of Arabidopsis thaliana high-temperature-responsive genes in hop were searched for. The amino acid sequences of Arabidopsis thaliana HSFA2 (AGI code: AT2G26150) and HSP17.6C (AGI code: AT1G53540) were obtained from TAIR (https://www.arabidopsis.org/), and the nucleotide sequences of the gene homologs were obtained using Hopbase (https://hopbase.cgrb.oregonstate.edu/). […] As the reference gene, the nucleotide sequence of the homolog of Arabidopsis thaliana EF1α (AGI code: AT1G18070) was obtained. The hop homolog genes were designated as H1HSFA2, H1HSP17.6C, and HIEF1α, respectively.
(§1) The materials as used in Example 4 were used.
The methods as employed in Example 4 were employed.
The leaves in the first and the second nodes from the apical buds of the tissue-cultured seedlings were sampled 1.5 months after the initiation of subculture and inoculated into a liquid medium consisting of a ½ Murashige and Skoog Plant Salt Mixture and 2 (w/v) % glucose. Specifically, a liquid medium was dispensed at 5 ml/well to a 6-well microplate (IWAKI), and 5 hop leaves were mounted thereon. […]
Thereafter, the relative expression level of the target gene upon N-acetylglutamic acid treatment was calculated by the ΔΔCt method.

The next test deals with H1ZAT10. The test can be described thus: H1ZAT10 gene expression by real-time PCR, Example 13. Type of test: in vivo, hop. As to conditions: 1 mM in medium, 20° C. for 2 hours, leaves; read-out: H1ZAT10 expression level, increase vs control.
Excerpt: as §1
The medium as used in Example 4 were used.
In order to design primers for the target genes necessary for gene expression analysis by real-time PCR, homologs of Arabidopsis thaliana oxidation stress-responsive genes in hop were searched for. The amino acid sequences of Arabidopsis thaliana ZAT10 (AGI code: AT1G27730) and ZAT12 (AGI code: AT5G59820) were obtained from TAIR (https://www.arabidopsis.org/), and the nucleotide sequences of the gene homologs were obtained using Hopbase (http:/hopbase.cgrb.oregonstate.edu/). […] As the reference gene, the nucleotide sequence of the homolog of Arabidopsis thaliana EF1α (AGI code: AT1G18070) was obtained. The hop homolog genes were designated as H1ZAT10, H1ZAT12, and HIEF1α, respectively.
The leaves in the first and the second nodes from the apical buds of the tissue-cultured seedlings were sampled 1.5 months after the initiation of subculture and inoculated into a liquid medium consisting of a ½ Murashige and Skoog Plant Salt Mixture and 2 (w/v) % glucose. Specifically, a liquid medium was dispensed at 5 ml/well to a 6-well microplate, and 5 hop leaves were mounted thereon. […]
Thereafter, the relative expression levels of the target genes upon N-acetylglutamic acid treatment were calculated by the ΔΔCt method.

As for `CC(=O)N[C@@H](CCC(=O)O)C(=O)O` [N-acetylglutamic acid], the fold induction at 400 µM in the test on ZAT12 turned out to be 37. The values for the fold induction at 1000 µM in the test with H1HSP17.6C and in the test with H1ZAT10 were 1.8 and 1.7, respectively.
